Results on 13 compounds are retold here after PubChem BioAssay (NCI).

Structures are written as SMILES.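 Test compounds were applied to cells in 96-well plates for 48 hours at 5 doses. GI50 is the concentration that inhibits growth by half. Definition used: TGI = concentration required for complete inhibition of growth.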

Some test systems named below: PC-3 prostate; KM12 colon; SK-MEL-28 melanoma; UACC-62 melanoma; HCC-2998 colon; MDA-MB-435; 786-0 renal; TK-10 renal; LOX IMVI melanoma; HCT-15 colon.
Assay in all cases: NCI tumour cell line growth inhibition, 48 h

With `COc1ccc(CNc2c3ccccc3nc3ccccc23)cc1OC`, the GI50 with PC-3 prostate was 2.58 µM; in the assay with KM12 colon, 3.65 µM; in the assay on SK-MEL-28 melanoma, 3.14 µM; in the assay on UACC-62 melanoma, 2.42 µM; in the assay with HCC-2998 colon, 2.28 µM; in the assay with MDA-MB-435, 2.93 µM. In addition, the GI50 in the assay with 786-0 renal is 2.78 µM; in the assay with TK-10 renal, 2.34 µM; in the assay on LOX IMVI melanoma it was 1.4 µM; in the assay on HCT-15 colon, 2.2 µM. In addition, the TGI was determined as 9.97 µM in the assay on PC-3 prostate; 15.5 µM in the assay with KM12 colon; 10.8 µM with SK-MEL-28 melanoma; 7.46 µM in the assay with UACC-62 melanoma; 8.76 µM in the assay with HCC-2998 colon; 10 µM in the assay on MDA-MB-435. The TGI with 786-0 renal worked out at 12.1 µM; in the assay on TK-10 renal, 8.44 µM; in the assay with LOX IMVI melanoma, 3.47 µM; with HCT-15 colon it was 7.17 µM.
Consider `O=C(O)c1cc(O)c2c(c1)C(C1c3cc(C(=O)O)cc(O)c3C(=O)c3c(OC4OC(CO)C(O)C(O)C4O)cccc31)c1cccc(OC3OC(CO)C(O)C(O)C3O)c1C2=O` (stereo not given), for which the GI50 with PC-3 prostate, with KM12 colon, in the assay on SK-MEL-28 melanoma, in the assay with UACC-62 melanoma, with HCC-2998 colon and with MDA-MB-435 was over 100 µM throughout. Besides, the GI50 in the assay with 786-0 renal, in the assay with TK-10 renal, in the assay with LOX IMVI melanoma and in the assay on HCT-15 colon was over 100 µM in each case. The TGI in the assay on PC-3 prostate, in the assay on KM12 colon, in the assay on SK-MEL-28 melanoma, in the assay with UACC-62 melanoma, in the assay with HCC-2998 colon and in the assay on MDA-MB-435 was over 100 µM throughout. Also, the TGI with 786-0 renal, with TK-10 renal, with LOX IMVI melanoma and in the assay on HCT-15 colon was over 100 µM in each case.
For `CN(C)c1ccc2nc3ccc(=O)cc-3sc2c1`, the GI50 was 0.0726 µM in the assay on PC-3 prostate; 0.781 µM in the assay on KM12 colon; 4.6 µM in the assay on SK-MEL-28 melanoma; 1.32 µM in the assay on UACC-62 melanoma; 0.697 µM in the assay on HCC-2998 colon; 0.31 µM with MDA-MB-435. Moreover, the GI50 was 2.06 µM in the assay with 786-0 renal, 13.8 µM in the assay on TK-10 renal, 0.633 µM in the assay on LOX IMVI melanoma and 0.322 µM in the assay with HCT-15 colon. The TGI in the assay with PC-3 prostate was over 100 µM; in the assay with KM12 colon, over 78.7 µM; in the assay on SK-MEL-28 melanoma, 27.1 µM; with UACC-62 melanoma, 8.69 µM; with HCC-2998 colon it was over 100 µM; in the assay on MDA-MB-435 it was 0.985 µM. Moreover, the TGI in the assay with 786-0 renal was over 100 µM; in the assay with TK-10 renal, over 77.7 µM; with LOX IMVI melanoma, over 63.8 µM; in the assay with HCT-15 colon, over 86 µM.
As to `N#CC(C(=O)/C(=N/Nc1nc(=S)[nH]n1N)C(C#N)c1ccccc1)c1ccccc1` (stereo not given), the TGI in the assay on PC-3 prostate, in the assay with KM12 colon, in the assay on SK-MEL-28 melanoma, in the assay with UACC-62 melanoma, in the assay on HCC-2998 colon and with MDA-MB-435 was over 100 µM throughout. Also, the TGI with 786-0 renal, with TK-10 renal, in the assay on LOX IMVI melanoma and in the assay with HCT-15 colon was over 100 µM each time.
With `Cc1ccc(N(CSc2ccc(Cl)cc2)CSc2ccc(Cl)cc2)cc1`, the GI50 with PC-3 prostate is 0.787 µM; in the assay on KM12 colon it was 0.51 µM; in the assay with SK-MEL-28 melanoma it was 1.64 µM; with UACC-62 melanoma it was 0.818 µM; in the assay with HCC-2998 colon, 2.57 µM; in the assay on MDA-MB-435, 0.927 µM. Moreover, the GI50 in the assay on 786-0 renal was 1.66 µM; in the assay on TK-10 renal it was 4.88 µM; in the assay with LOX IMVI melanoma it was 0.189 µM; with HCT-15 colon, 2.12 µM. Also, the TGI with PC-3 prostate was found to be 13.2 µM; with KM12 colon, 12.5 µM; with SK-MEL-28 melanoma it was 4.23 µM; with UACC-62 melanoma it was 2.91 µM; in the assay on HCC-2998 colon it was 11.7 µM; with MDA-MB-435, 9.38 µM. Further, the TGI in the assay with 786-0 renal was 7.66 µM; in the assay on TK-10 renal, over 100 µM; in the assay on LOX IMVI melanoma it was 0.694 µM; with HCT-15 colon, 15.3 µM.
Take `COC(COC(=O)N1CCN(C=O)CC1)C1=C(N2CC2)C(=O)C(C)=C(N2CC2)C1=O` (stereo not given): the TGI with PC-3 prostate was determined as 3.24 µM; in the assay on KM12 colon, 2.79 µM; with SK-MEL-28 melanoma it was 3.33 µM; with UACC-62 melanoma, 1.35 µM; in the assay on HCC-2998 colon, 38.1 µM; in the assay with MDA-MB-435, 0.976 µM. Moreover, the TGI amounted to 0.43 µM with 786-0 renal, 2.09 µM in the assay on TK-10 renal, 0.613 µM with LOX IMVI melanoma and 8.1 µM in the assay on HCT-15 colon.
As to `CC(=O)Oc1ccc(Nc2c3ccccc3nc3ccccc23)cc1`, the GI50 in the assay with PC-3 prostate is 2.12 µM; in the assay on KM12 colon it was 1.88 µM; with SK-MEL-28 melanoma, 1.58 µM; in the assay with UACC-62 melanoma it was 1.1 µM; in the assay on HCC-2998 colon it was 1.97 µM; in the assay on MDA-MB-435, 2.17 µM. Further, the GI50 was 1.89 µM with 786-0 renal, 1.68 µM in the assay with TK-10 renal, 0.736 µM with LOX IMVI melanoma and 1.13 µM in the assay with HCT-15 colon. For the same compound, the TGI was found to be 13.3 µM in the assay on PC-3 prostate; 10.5 µM in the assay on KM12 colon; 3.92 µM with SK-MEL-28 melanoma; 2.61 µM in the assay on UACC-62 melanoma; 14.3 µM in the assay on HCC-2998 colon; 8.16 µM with MDA-MB-435. Further, the TGI in the assay on 786-0 renal was 6.4 µM; with TK-10 renal it was 6.22 µM; in the assay with LOX IMVI melanoma it was 2.03 µM; with HCT-15 colon, 3.4 µM.
With `CCN(CC)CCOc1ccc(/C(=C(\C)c2ccc(F)c(OC)c2)c2ccc(Cl)cc2)cc1`, the GI50 in the assay with PC-3 prostate is 2.11 µM; in the assay with KM12 colon, 2.27 µM; with SK-MEL-28 melanoma it was 2.44 µM; in the assay on UACC-62 melanoma, 2.71 µM; in the assay with HCC-2998 colon it was 2.17 µM; in the assay with MDA-MB-435, 2.43 µM. Also, the GI50 was 2.7 µM in the assay on 786-0 renal, 2.56 µM in the assay on TK-10 renal, 2.46 µM with LOX IMVI melanoma and 1.08 µM in the assay on HCT-15 colon. Moreover, the TGI in the assay on PC-3 prostate turned out to be 4.62 µM; in the assay on KM12 colon, 4.73 µM; in the assay on SK-MEL-28 melanoma, 4.71 µM; with UACC-62 melanoma, 5.06 µM; in the assay on HCC-2998 colon, 4.36 µM; in the assay with MDA-MB-435, 4.61 µM. The TGI in the assay on 786-0 renal is 5.11 µM; with TK-10 renal it was 5.31 µM; in the assay on LOX IMVI melanoma, 4.66 µM; with HCT-15 colon, 3.39 µM.
With `COc1ccc(-n2cc(-c3ccc(Cl)c(Cl)c3)nc2SCc2cccc(C#N)c2)cc1`, the GI50 in the assay with PC-3 prostate is 34.1 µM; in the assay on KM12 colon, over 100 µM; with SK-MEL-28 melanoma it was 20.2 µM; in the assay on UACC-62 melanoma it was 19.1 µM; in the assay with HCC-2998 colon, 79.1 µM; with MDA-MB-435, 12.5 µM. For the same compound, the GI50 was 11.8 µM in the assay on 786-0 renal, 44.6 µM with TK-10 renal, 13.9 µM in the assay with LOX IMVI melanoma and 42.8 µM in the assay on HCT-15 colon. Further, the TGI in the assay with PC-3 prostate, with KM12 colon, in the assay with SK-MEL-28 melanoma, with UACC-62 melanoma, in the assay with HCC-2998 colon and with MDA-MB-435 was over 100 µM in each case. In addition, the TGI is 40.2 µM in the assay with 786-0 renal, over 100 µM in the assay on TK-10 renal, over 100 µM in the assay with LOX IMVI melanoma and over 100 µM in the assay with HCT-15 colon.
As to `COc1ccccc1/C=C/c1cnccn1`, the TGI with PC-3 prostate, in the assay with KM12 colon, with SK-MEL-28 melanoma, in the assay with UACC-62 melanoma, in the assay with HCC-2998 colon and with MDA-MB-435 was over 10 µM each time. The TGI with 786-0 renal, in the assay on TK-10 renal, in the assay with LOX IMVI melanoma and in the assay on HCT-15 colon was over 10 µM throughout.
As for `OCCCCC#Cc1ccccc1C#Cc1cccc(O)c1`, the GI50 in the assay on PC-3 prostate is 16.9 µM; in the assay with KM12 colon, 17.1 µM; with SK-MEL-28 melanoma, 14.2 µM; with UACC-62 melanoma, 13.3 µM; in the assay with HCC-2998 colon, 19.1 µM; in the assay with MDA-MB-435 it was 16.1 µM. Also, the GI50 was 13.8 µM in the assay with 786-0 renal, 19.2 µM with TK-10 renal, 16.7 µM with LOX IMVI melanoma and 13.6 µM with HCT-15 colon. Further, the TGI with PC-3 prostate amounted to 38.1 µM; with KM12 colon, 41.3 µM; in the assay with SK-MEL-28 melanoma it was 28.2 µM; in the assay on UACC-62 melanoma, 26.9 µM; in the assay with HCC-2998 colon it was 35.5 µM; with MDA-MB-435 it was 32.8 µM. Moreover, the TGI in the assay with 786-0 renal amounted to 29.2 µM; in the assay on TK-10 renal, 38.2 µM; with LOX IMVI melanoma, 30.9 µM; in the assay on HCT-15 colon, 27 µM.
`O/N=C\c1c(O)ccc2ccccc12`: the TGI with PC-3 prostate, with KM12 colon, in the assay with SK-MEL-28 melanoma, in the assay with UACC-62 melanoma, with HCC-2998 colon and in the assay with MDA-MB-435 was over 100 µM throughout. The TGI in the assay with 786-0 renal, in the assay with TK-10 renal, with LOX IMVI melanoma and in the assay on HCT-15 colon was over 100 µM each time.
As to `O=C(CCCN1CC=C(n2c(=O)[nH]c3ccccc32)CC1)c1ccc(F)cc1`, the GI50 in the assay with PC-3 prostate was 29 µM; in the assay with KM12 colon it was 30.7 µM; with SK-MEL-28 melanoma, 52.6 µM; in the assay with UACC-62 melanoma it was 42.7 µM; in the assay on HCC-2998 colon, 48 µM; in the assay with MDA-MB-435, 18.1 µM. The GI50 with 786-0 renal is 29.3 µM; in the assay with TK-10 renal it was 87 µM; in the assay on LOX IMVI melanoma, 26 µM; with HCT-15 colon, 37.4 µM. In addition, the TGI with PC-3 prostate was over 100 µM; with KM12 colon, over 100 µM; in the assay on SK-MEL-28 melanoma, over 100 µM; in the assay on UACC-62 melanoma, over 100 µM; with HCC-2998 colon, over 100 µM; with MDA-MB-435, 49.5 µM. The TGI with 786-0 renal, in the assay on TK-10 renal, in the assay on LOX IMVI melanoma and in the assay on HCT-15 colon was over 100 µM in each case.
